We go through 1 compound from US20230382904A1, “SUBSTITUTED 4-([1,2,4]TRIAZOLO[1,5-a]PYRIDIN-6-YL)THIOPHENE-2-CARBOXAMIDE DERIVATIVES AND USE THEREOF” (The Johns Hopkins University, priority 2020, published 2023).

pIC50: −log10 of the molar value.

Data set [1] is described as follows: Mouse light damage model (serial OCT and serial ERG). The class given is in vivo. The conditions noted are these: versus vehicle. Here is the method:
After two weeks (14 days) acclimation in dim light (under 10-30 lux), female BALBc/J (10-12 weeks) were dark-adapted for 24 hrs. All compound injections were done in darkness with din-red light as needed. All mice were placed in light box after applying dilator (tropicamide or phenylephirine) topically. Then light was left on for 4 h with ˜3000 lux followed by dark recovery at the same condition with dark adaptation until any experimental procedure is ready or being placed in dim light condition (under 10-30 lux). Mice were then followed for 3-7 days with OCT, ERG, functional testing, and/or immunohistochemical analysis.

Data set [2] can be described thus: Ischemia/Reperfusion (I/R) rat model, optokinetic tracking. The class given is in vivo. The following applies: prophylactic setting, after a 20 minute ischemic event. Here is the method: The animals were placed under anesthesia (Rompun (Xylazin als Xylazinhydrochlorid) 2%, Bayer, PZN-1320422, Ketavet (Ketaminhydrochlorid) 100 mg/mL, Pfizer, PZN-3151811) and the pupil on the right eye dilated (Neosynephrin-POS 5% Augentropfen, […], PZN 0828584).
When anesthetized, local anesthetic eye drops (Alcaine, lokalanästhetische Augentropfen, Alcon, 37516058) were applied to the right eye. The rat is on the left side. After a short exposure time, a 30G cannula was inserted laterally into the anterior chamber of the eye. To do this, the eye was fixed with a cotton swab so that it emerged from the eye socket. Once the cannula was placed, the eye was carefully released. The 30G cannula was connected via infusion set to a bag of isotonic infusion solution. The infusion bag hung in a pressure cuff. The pressure was regulated via the pressure cuff and the manometer. For the model, the intraocular pressure is increased to 120 mm Hg. The duration is 20 min. If the cannula fits correctly, the eye turns white, because the blood circulation was interrupted. During treatment, the rats lied on a warm mat (level 2). It was necessary to observe the anesthetic state of the animal. […]
For the optomotry readout only the spatial resolution is measured (spatial frequency). Both eyes were measured. […]

Data set [3] is described as follows: In vitro PhysChem properties. The class given is physicochemical.
A further data set deals with LZK (Homo sapiens (Human), UniProt O43283). The experiment in a line: LZK biochemical assay (TR-FRET, MKK7 phosphorylation). Summed up: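 Catalytic-domain LZK (10 nM) phosphorylated His-MKK7 (15 nM) with 15 μM ATP for 90 min at RT. Phospho-T275/S277 detected by Eu-anti-phospho-MKK7/XL665-anti-His TR-FRET after 16 h at 32° C, using the 665/Eu ratio. Buffer: 50 mM Hepes pH 7.5, 10 mM MgCl2, 1 mM DTT.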
Chain of LZK (O43283 168-409): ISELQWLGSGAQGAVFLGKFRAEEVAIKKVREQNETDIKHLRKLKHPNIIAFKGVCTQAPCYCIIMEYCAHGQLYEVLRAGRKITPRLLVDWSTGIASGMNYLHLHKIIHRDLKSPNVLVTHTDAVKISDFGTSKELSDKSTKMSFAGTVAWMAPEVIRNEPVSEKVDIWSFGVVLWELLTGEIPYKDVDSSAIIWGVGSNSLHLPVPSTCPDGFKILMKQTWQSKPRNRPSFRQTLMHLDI

Another data set concerns DLK pathway activation. The data set can be described thus: Mouse optic nerve crush, p-JUN immunoreactivity in RGC layer. It is filed as in vivo. The following applies: compared to RGCs treated with the vehicle. How it is done:
Approximately three-month-old male C57BL/6 mice were anesthetized with 100/10 mg/kg of Ketamine/Xylazine followed by topical administration of proparacaine. Under the binocular operating scope, optic nerves were surgically exposed and crushed with Dumont N7 self-closing forceps 1-2 mm behind the globe. A small incision was made at the conjunctiva located at lateral orbit of eye globe using spring scissors. To avoid bleeding from the vasculature, minimum incision was continued until the optic nerve was exposed. After clean exposure, the optic nerve was grasped at approximately 1-2 mm from the globe for 3-7 seconds using the fine micro forceps. After careful removal of the micro forceps, the globe was relocated and Tobramycin was administered. Ten days after nerve crush, eyes were enucleated and fixed and surviving RGC was immunostained for SNCG, RBPMS and βIII-tubulin. The retinas were then imaged with a Nikon Eclipse TE2000-5 fluorescence microscope and Plan-fluor 40 Å˜/0.6 objective. […] RGCs were counted manually from each image. In a separate cohort of animals, optic nerves and retinas were sectioned and stained for phospho-JUN (an indicator of DLK pathway activation) 24 hours after optic nerve crush. Intravitreal injection, optic nerve crush, immunofluorescence, and RGC counting were performed in a masked fashion.

For `CC[C@H](NC(=O)c1cc(-c2cc(C(=O)N[C@@H](C)CC)c3nc(N)nn3c2)cs1)c1ccc(F)cc1` [Compound 112, 2-Amino-N-[(2S)-butan-2-yl]-6-(5-{[(1S)-1-(4-fluorophenyl)propyl]carbamoyl}thiophen-3-yl)[1,2,4]triazolo[1,5-a]pyridine-8-carboxamide], in data set [1] (serial ERG), the “a wave amplitude in photoreceptors” value is “higher” and the “b wave amplitude in inner retinal cells” value is given as “higher”. In data set [1] (serial OCT), the “outer retinal layer (ORL) thickness” value is listed as “higher”. In addition, the retained vision in data set [2] was about 80%. For the same compound, the chemical stability entry in data set [3] is on record as “chemically stable”. This compound showed a pIC50 on LZK of 7.54. Besides, the “p-cJun intensity in the RGCs” value with DLK pathway activation is recorded as “decreased”.
